In patent US10765114B2, “4-amino-6-(pyridyl and 2-substitutedphenyl)-picolinates and 6-amino-2-(pyridyl and 2-substitutedphenyl)-pyrimidine-4-carboxylates and their use as herbicides” (Dow AgroSciences LLC, priority 2013, dated 2020):

Experiments:
Experiment in all cases: Post-Emergent Test III (Wheat and Barley)
ALOMY (blackgrass) = type: in vivo, Alopecurus myosuroides; settings: for pest or weed control at 35 g/ha: 35 g ai/ha; for pest or weed control at 70 g/ha: 70 g ai/ha; for GR50, ALOMY: effective dose for growth reduction of 50 percent; for GR50, ALOMY / GR80, ALOMY: probit analysis; for GR80, ALOMY: effective dose for growth reduction of 80 percent
Procedure: (§1) Seeds of the desired test plant species were planted in Sun Gro MetroMix® 306 planting mixture, which typically has a pH of 6.0 to 6.8 and an organic matter content of about 30 percent, in plastic pots with a surface area of 103.2 square centimeters (cm^2). When required to ensure good germination and healthy plants, a fungicide treatment and/or other chemical or physical treatment was applied. The plants were grown for 7-36 days in a greenhouse with an approximate 14 h photoperiod which was maintained at about 18° C. during the day and 17° C. during the night. Nutrients and water were added on a regular basis and supplemental lighting was provided with overhead metal halide 1000-Watt lamps as necessary. The plants were employed for testing when they reached the second or third true leaf stage.
(§2) A weighed amount, determined by the highest rate to be tested, of each test compound was placed in a 25 mL glass vial and was dissolved in 4 mL of a 97:3 v/v mixture of acetone and DMSO to obtain concentrated stock solutions. […] The concentrated stock solutions obtained were diluted with 20 mL of an aqueous mixture containing acetone, water, isopropyl alcohol, DMSO, Agri-Dex crop oil concentrate, and X-77 surfactant in a 48:39:10:1.5:1.5:0.02 v/v ratio to obtain spray solutions containing the highest application rates. Additional application rates were obtained by serial dilution of 12 mL of the high rate solution into a solution containing 2 mL of 97:3 v/v mixture of acetone and DMSO and 10 mL of an aqueous mixture containing acetone, water, isopropyl alcohol, DMSO, Agri-Dex crop oil concentrate, and X-77 surfactant in a 48:39:10:1.5:1.5:0.02 v/v ratio to obtain ½×, ¼×, ⅛× and 1/16× rates of the high rate. Compound requirements are based upon a 12 mL application volume at a rate of 187 liters per hectare (L/ha). Formulated compounds were applied to the plant material with an overhead Mandel track sprayer equipped with 8002E nozzles calibrated to deliver 187 L/ha over an application area of 0.503 square meters at a spray height of 18 inches (43 cm) above the average plant canopy height. Control plants were sprayed in the same manner with the solvent blank.
(§3) The treated plants and control plants were placed in a greenhouse as described above and watered by subirrigation to prevent wash-off of the test compounds. After 21 dAYS, the condition of the test plants as compared with that of the untreated plants was determined visually and scored on a scale of 0 to 100 percent where 0 corresponds to no injury and 100 corresponds to complete kill and presented as indicated in Table A.
(§4) By applying the well-accepted probit analysis as described by J. Berkson in Journal of the American Statistical Society, 48, 565 (1953) and by D. Finney in “Probit Analysis” Cambridge University Press (1952), herbicidal injury of a specific compound at various rates can be used to calculate GR10, GR20, GR50, GR80 and GR90 values, which are defined as growth reduction factors that correspond to the effective dose of herbicide required to provide plant growth reduction (GR) of 10 percent, 20 percent, 50 percent, 80 percent and 90 percent, respectively. Probit analysis was applied to data collected from multiple dose rates of individual compounds utilizing the procedures explained in the following examples. The analysis of those dose rates is captured in the following tables.

APESV (windgrass) = type: in vivo, Apera spica-venti; settings: for pest or weed control at 35 g/ha: 35 g ai/ha; for pest or weed control at 70 g/ha: 70 g ai/ha; for GR50, APESV: effective dose for growth reduction of 50 percent; for GR50, APESV / GR80, APESV: probit analysis; for GR80, APESV: effective dose for growth reduction of 80 percent
Procedure: as §1, §2, §3, §4

KCHSC (kochia) = type: in vivo, Kochia scoparia; settings: for pest or weed control at 35 g/ha: 35 g ai/ha; for pest or weed control at 70 g/ha: 70 g ai/ha; for GR50, KCHSC: effective dose for growth reduction of 50 percent; for GR50, KCHSC / GR80, KCHSC: probit analysis; for GR80, KCHSC: effective dose for growth reduction of 80 percent
Procedure: as §1, §2, §3, §4

HORSS = type: in vivo; settings: for pest or weed control at 35 g/ha: 35 g ai/ha; for pest or weed control at 70 g/ha: 70 g ai/ha; for GR20, HORSS: effective dose for growth reduction of 20 percent, probit analysis
Procedure: as §1, §2, §3, §4

LOLSS = type: in vivo; settings: for GR50, LOLSS: effective dose for growth reduction of 50 percent; for GR50, LOLSS / GR80, LOLSS: probit analysis; for GR80, LOLSS: effective dose for growth reduction of 80 percent; for pest or weed control at 35 g/ha: 35 g ai/ha; for pest or weed control at 70 g/ha: 70 g ai/ha
Procedure: as §1, §2, §3, §4

TRZSS = type: in vivo; settings: for pest or weed control at 35 g/ha: 35 g ai/ha; for pest or weed control at 70 g/ha: 70 g ai/ha; for GR20, TRZSS: effective dose for growth reduction of 20 percent, probit analysis
Procedure: as §1, §2, §3, §4

[1] = Alopecurus myosuroides, post-emergence, 504 h, postemergence, read-out: Visual Growth Reduction (%) 21 Days After Application, ALOMY
[2] = Apera spica-venti, post-emergence, 504 h, postemergence, read-out: Visual Growth Reduction (%) 21 Days After Application, APESV
[3] = Bassia scoparia, post-emergence, 504 h, postemergence, read-out: Visual Growth Reduction (%) 21 Days After Application, KCHSC
[4] = Hordeum vulgare, post-emergence, 504 h, postemergence, read-out: Visual Growth Reduction (%) 21 Days After Application, HORSS
[5] = post-emergence, 504 h, postemergence, read-out: Visual Growth Reduction (%) 21 Days After Application, LOLSS
[6] = Triticum aestivum, post-emergence, 504 h, postemergence, read-out: Visual Growth Reduction (%) 21 Days After Application, TRZSS

Compound | pest or weed control at 35 g/ha (ALOMY (blackgrass); [1]) [%] | pest or weed control at 70 g/ha (ALOMY (blackgrass); [1]) [%] | GR50, ALOMY (ALOMY (blackgrass)) [g ai/ha] | GR80, ALOMY (ALOMY (blackgrass)) [g ai/ha] | pest or weed control at 35 g/ha (APESV (windgrass); [2]) [%] | pest or weed control at 70 g/ha (APESV (windgrass); [2]) [%] | GR50, APESV (APESV (windgrass)) [g ai/ha] | GR80, APESV (APESV (windgrass)) [g ai/ha] | pest or weed control at 35 g/ha (KCHSC (kochia); [3]) [%] | pest or weed control at 70 g/ha (KCHSC (kochia); [3]) [%] | GR50, KCHSC (KCHSC (kochia)) [g ai/ha] | GR80, KCHSC (KCHSC (kochia)) [g ai/ha] | pest or weed control at 35 g/ha (HORSS; [4]) [%] | pest or weed control at 70 g/ha (HORSS; [4]) [%] | GR20, HORSS (HORSS) [g ai/ha] | GR50, LOLSS (LOLSS) [g ai/ha] | GR80, LOLSS (LOLSS) [g ai/ha] | pest or weed control at 35 g/ha (LOLSS; [5]) [%] | pest or weed control at 70 g/ha (LOLSS; [5]) [%] | pest or weed control at 35 g/ha (TRZSS; [6]) [%] | other results
COC(=O)c1nc(-c2ccc(OC(F)F)nc2)c(F)c(N)c1Cl [Compound 71] | 0 to 29 | 0 to 29 | >140 | >140 | 0 to 29 | 0 to 29 | >140 | >140 | 0 to 29 | 60 to 74 | 80 | >140 | 30 to 44 | 60 to 74 | 26 | >140 | >140 | 0 to 29 | 0 to 29 | 60 to 74 | pest or weed control at 140 g/ha (ALOMY (blackgrass); Alopecurus myosuroides, post-emergence, 504 h, 140 g ai/ha, postemergence, read-out: Visual Growth Reduction (%) 21 Days After Application, ALOMY): 30 to 44%; pest or weed control at 140 g/ha (APESV (windgrass); Apera spica-venti, post-emergence, 504 h, 140 g ai/ha, postemergence, read-out: Visual Growth Reduction (%) 21 Days After Application, APESV): 30 to 44%; pest or weed control at 140 g/ha (KCHSC (kochia); Bassia scoparia, post-emergence, 504 h, 140 g ai/ha, postemergence, read-out: Visual Growth Reduction (%) 21 Days After Application, KCHSC): 60 to 74%; pest or weed control at 140 g/ha (HORSS; Hordeum vulgare, post-emergence, 504 h, 140 g ai/ha, postemergence, read-out: Visual Growth Reduction (%) 21 Days After Application, HORSS): 75 to 84%; pest or weed control at 140 g/ha (LOLSS; post-emergence, 504 h, 140 g ai/ha, postemergence, read-out: Visual Growth Reduction (%) 21 Days After Application, LOLSS): 30 to 44%; pest or weed control at 70 g/ha (TRZSS; [6]): 75 to 84%; pest or weed control at 140 g/ha (TRZSS; Triticum aestivum, post-emergence, 504 h, 140 g ai/ha, postemergence, read-out: Visual Growth Reduction (%) 21 Days After Application, TRZSS): 85 to 94%; GR20, TRZSS (TRZSS): 16 g ai/ha
COC(=O)c1nc(-c2ccc(C(F)(F)F)nc2)c(Cl)c(N)c1Cl [Compound 83] | 60 to 74 | 75 to 84 | 25 | 58 | 30 to 44 | 30 to 44 | 89 | >140 | 0 to 29 | 30 to 44 | 113 | >140 | 75 to 84 | 85 to 94 | 3 | 59 | 99 | 0 to 29 | 60 to 74 | 60 to 74 | pest or weed control at 70 g/ha (TRZSS; [6]): 75 to 84%; GR20, TRZSS (TRZSS): 4 g ai/ha
